Source: US10357464B2, “Methods for delivering volatile anesthetics for regional anesthesia and/or pain relief” (The Board of Regents of the University of Texas System, priority 2006, dated 2019)
Values joined by “and” are separate entries in the source; they are usually repeats but may differ in a detail not shown here. Equal entries are not always repeated.

Columns and labels:
[1] = Observation of adverse effects and recovery after intrathecal injection; assay type: in vivo, rat; conditions: intrathecal injection of 2 microliters, rats
Procedure: These rats were then allowed time to recover from their intrathecal injection. There were no apparent adverse effects such as respiratory depression, cardiac, or neurological compromise. At 30 minutes after the injection, the rats were tested again, according to grouping:
This study also shed some light into the safety of intrathecally delivering active agent gases.

[2] = tested on: thermal C-fiber pain pathway; experiment: Hotplate test after intrathecal isoflurane dissolved in artificial cerebrospinal fluid (ACSF); assay type: in vivo, rat
Procedure: Pain sensitivity was measured after intrathecal administration of isoflurane in artificial cerebrospinal fluid (ACSF). Further, as detailed below, the isoflurane was first dissolved in ACSF and then sonicated before administration. The dose response relationship was then evaluated by generating a stimulus-response (SR) graph in order to determine relevant concentrations of isoflurane that may be administered intrathecally to achieve analgesia or anesthesia. The characterization of the pharmacological profile of intrathecal administration of isoflurane in ACSF was performed in this example using rats; further, as would be appreciated by one of skill in the art, analogous approaches may be used to determine the precise pharmacological profile in humans. Isoflurane dissolved in ACSF was prepared by the following method. […] The dose response relationship was then evaluated by generating a stimulus-response (SR) graph in order to standardize responses across animals and determine relevant concentrations of isoflurane that may be administered intrathecally to achieve analgesia or anesthesia. […] MPE is calculated as ((drug response time—baseline response time)/(cutoff time−baseline response time))*100. […]

[3] = tested on: thermal C-fiber pain pathway; experiment: Hotplate test (thermal withdrawal latency) after direct intrathecal injection of volatile anesthetic; conditions: smallest intrathecally delivered dose of 2 microliters
[4] = tested on: thermal C-fiber pain pathway; experiment: Hotplate test after intrathecal injection of isoflurane dissolved in saline (Study C); assay type: in vivo, rat; conditions: 5 microliter isoflurane dissolved in saline
Procedure: Isoflurane was dissolved into saline using the following method (also referred to as the “bubbling” method). Study C: A mock vaporizing device was created using a 500 ml modified Erlenmeyer flask (2 inlets and 1 catheter into the liquid phase). The flask was partially filled with 0.9% normal saline and a stoppered glass pipette was inserted into the bottom of the liquid phase for injection of isoflurane. A second egress pipette allowed egress of gas from the closed container. 2% isoflurane solution in oxygen at 2 L/min was injected through the pipette, saturating the 0.9% saline solution after approximately 10 minutes of injection. 5 mL was drawn from the saturated saline solution and administered to […] using the procedures outlined in Example I above. For study C, all animals were prepared as for experiments A and B. The inventors injected 4 animals with 5 microliter of dissolved isoflurane solution (as prepared in 0030) via intrathecal catheter. Note, control (baseline) latency to paw withdrawal is different in Study C due to a different intensity of heat lamp used. Each animal serves as its own control in study C. Study C Data is presented here: in seconds to paw withdrawal to heat source. Table and graphic format.

Row | Structure (SMILES) | adverse effects [1] | maximal possible effect (MPE) ([2]; 10% v/v isoflurane in ACSF, 10 μl intrathecal (1.46 mg), 10 minutes after injection, cutoff 20 seconds) | analgesia (hind paw withdrawal threshold to radiant heat) ([2]; isoflurane in ACSF 10% v/v, 10 μL intrathecal, 1.46 mg dose) | analgesic effect (thermal latency time) [3] | seconds to paw withdrawal to heat source, 5 MIN, mean ([4]; 5 min, mean of all readings (control mean 3.875)) | seconds to paw withdrawal to heat source, 5 MIN ([4]; 5 min, single readings per rat) | seconds to paw withdrawal to heat source, 10 MIN, mean ([4]; 10 min, mean of all readings) | seconds to paw withdrawal to heat source, 10 MIN ([4]; 10 min, single readings per rat) | seconds to paw withdrawal to heat source, 15 MIN, mean ([4]; 15 min, mean of all readings) | seconds to paw withdrawal to heat source, 15 MIN ([4]; 15 min, single readings per rat) | seconds to paw withdrawal to heat source, 30 MIN, mean ([4]; 30 min, mean of all readings) | seconds to paw withdrawal to heat source, 30 MIN ([4]; 30 min, single readings per rat) | seconds to paw withdrawal to heat source, 60 MIN, mean ([4]; 60 min, mean of all readings) | seconds to paw withdrawal to heat source, 60 MIN ([4]; 60 min, single readings per rat)
1 | FC(F)OC(Cl)C(F)(F)F (stereo not shown) [isoflurane, 1-chloro-2,2,2-trifluoroethyl difluoromethyl ether] | None of the rats in the study experienced adverse effects | ~34% | resulted in analgesia | analgesic effect | 14.82 s | 14.2 seconds and 20 seconds (3×) and 16 seconds and 9.8 seconds and 11.8 seconds (2×) and 9.1 seconds and 11 seconds and 15 seconds and 19.5 seconds and 10.9 seconds and 12.6 seconds and 18.1 seconds and 17.3 seconds | 9.181 s | 12.2 seconds and 12 seconds (2×) and 9.1 seconds and 8.9 seconds and 8.8 seconds and 7.8 seconds and 10.2 seconds and 8.1 seconds and 5.4 seconds and 9 seconds (3×) and 6.8 seconds and 9.9 seconds and 8.7 seconds | 7.375 s | 6.1 s and 7.1 s and 4.8 s and 5.2 s and 7.9 s and 6.4 s and 6.9 s and 4.3 s and 7.6 s and 7.3 s and 8.8 s and 7 s and 10.4 s and 9.4 s and 5.4 s and 13.4 s | 5.9375 s | 5.2 seconds (2×) and 6.1 seconds and 5.8 seconds and 6.5 seconds and 4.9 seconds (2×) and 4.3 seconds and 4.7 seconds and 3.8 seconds and 6.8 seconds and 7.2 seconds and 8.2 seconds and 6.9 seconds and 8.1 seconds and 6.4 seconds | 4.456 s | 4.2 seconds (2×) and 3.5 seconds (3×) and 3.3 seconds and 3.8 seconds (3×) and 6.1 seconds and 5.8 seconds and 5.1 seconds and 4.9 seconds and 4.7 seconds and 7 seconds and 4.1 seconds
2 | FCOC(C(F)(F)F)C(F)(F)F [sevoflurane] | None of the rats in the study experienced adverse effects | – | – | analgesic effect | – | – | – | – | – | – | – | – | – | –
